The source of these data is patent US7893055B2, “HIV integrase inhibitors” (priority 2006, dated 2011).

The target of the assay is T1, HIV-integrase (Human immunodeficiency virus type 1 group M subtype B, UniProt P12497).
T1 construct: Recombinant integrase (0.26 ng) was incubated with the beads
The experiment in a line: HIV-Integrase Inhibition Activity (SPA strand transfer assay). Type of assay: biochemical. The settings on record: recombinant integrase, SPA beads, P33 labeled target DNA; read-out: Activity (IC50 class, HIV-integrase inhibition). How it is done:
HIV-Integrase InhibitionActivity. To evaluate in-vitro activity against HIV-integrase, 5 pmole of biotin labeled substrate DNA was bound to 100 μg of Streptavidin coated PVT SPA beads (Amersham Pharmacia Biotech). Recombinant integrase (0.26 ng) was incubated with the beads for 90 min at 37° C. Unbound enzyme was removed by washing the complex followed by addition of inhibitors and 0.1 fmol of P33 labeled target DNA. The reaction was stopped by adding EDTA to a final concentration of 10 mM. Samples were counted in TopCountNXT (Packard) and the CPM was used as a measure of integration. The reaction condition was as described in A. Engelman and R. Craigie, J. Virol. 69, 5908-5911 (1995). The sequences of substrate and target DNA were described in Nucleic Acid Research 22, 1121-1122 (1994). Activity equal to A refers to a compound having IC50=0.002 to 0.10 μM while B and C denote compounds having IC50=0.1 to 1.0 μM and IC50≧1.0 μM respectively.
As to “Pyrimido[2,1-c][1,4]oxazine-2- carboxamide, N-[(1,3-dimethyl- 1H-pyrazol-4-yl)methyl]-4,6,7,9- tetrahydro-3-hydroxy-9,9- dimethyl-4-oxo- [Example 61]”, the IC50 is 100 to 1000 nM.
For the compound `Cc1ccc(CNC(=O)c2nc3n(c(=O)c2O)CCOC3(C)C)s1` [Example 29, Pyrimido[2,1-c][1,4]oxazine-2-carboxamide, 4,6,7,9-tetrahydro-3-hydroxy-9,9-dimethyl-N-[(5-methyl-2-thienyl)methyl]-4-oxo-], the IC50 was 2 to 100 nM.
Turning to “Pyrimido[2,1-c][1,4]oxazine-2- carboxamide, N-[(4-chloro-1- ethyl-1H-pyrazol-5-yl)methyl]- 4,6,7,9-tetrahydro-3-hydroxy-9,9- dimethyl-4-oxo- [Example 71]”, the IC50 was in the range of 100 to 1000 nM.
In the case of “Pyrimido[2,1-c][1,4]oxazine-2- carboxamide, 4,6,7,9-tetrahydro-3- hydroxy-N-[2-(5-hydroxy-1H- indol-3-yl)ethyl]-9,9-dimethyl-4- oxo- [Example 51]”, the IC50 is no less than 1000 nM.
For “Pyrimido[2,1-c][1,4]oxazine-2- carboxamide, 4,6,7,9-tetrahydro-3- hydroxy-9,9-dimethyl-4-oxo-N- [(2,3,6,7-tetrahydro-1,3,7- trimethyl-2,6-dioxo-1H-purin-8- yl)methyl]- [Example 60]”, the IC50 is no less than 1000 nM.
For `Cc1csc(CNC(=O)c2nc3n(c(=O)c2O)CCOC3(C)C)c1` [Example 30, Pyrimido[2,1-c][1,4]oxazine-2-carboxamide, 4,6,7,9-tetrahydro-3-hydroxy-9,9-dimethyl-N-[(4-methyl-2-thienyl)methyl]-4-oxo-], the IC50 is 2 to 100 nM.
The same measure for `Cc1cc(CNC(=O)c2nc3n(c(=O)c2O)CCOC3(C)C)nn1C(C)(C)C` [Example 10, Pyrimido[2,1-c][1,4]oxazine-2-carboxamide, N-[[1-(1,1-dimethylethyl)-5-methyl-1H-pyrazol-3-yl]methyl]-4,6,7,9-tetrahydro-3-hydroxy-9,9-dimethyl-4-oxo-]: 2 to 100 nM.
For the compound “2-Thiopheneacetic acid, 5- [[[(4,6,7,9-tetrahydro-3-hydroxy- 9,9-dimethyl-4-oxopyrimido[2,1- c][1,4]oxazin-2- yl)carbonyl]amino]methy]- [Example 55]”, the IC50 fell in the range of 100 to 1000 nM.
Consider `Cn1cc(CN(Cc2cn(C)nn2)C(=O)c2nc3n(c(=O)c2O)CCOC3(C)C)nn1` [Example 26, Pyrimido[2,1-c][1,4]oxazine-2-carboxamide, 4,6,7,9-tetrahydro-3-hydroxy-9,9-dimethyl-N,N-bis[(1-methyl-1H-1,2,3-triazol-4-yl)methyl]-4-oxo-], for which the half-maximal inhibitory concentration (IC50) was no less than 1000 nM.
Take “Pyrimido[2,1-c][1,4]oxazine-2- carboxamide, N-[(4-chloro-3- methyl-5-isoxazolyl)methyl]- 4,6,7,9-tetrahydro-3-hydroxy-9,9- dimethyl-4-oxo- [Example 54]”: the half-inhibitory concentration (IC50) is 100 to 1000 nM.
On to `CC1(C)OCCn2c1nc(C(=O)NCc1nccs1)c(O)c2=O` [Example 5, Pyrimido[2,1-c][1,4]oxazine-2-carboxamide, 4,6,7,9-tetrahydro-3-hydroxy-9,9-dimethyl-4-oxo-N-(2-thiazolylmethyl)-], for which the IC50 is no less than 1000 nM.
As for `CC1(C)OCCn2c1nc(C(=O)NCc1ccc(Cc3ccccc3)o1)c(O)c2=O` [Example 27, Pyrimido[2,1-c][1,4]oxazine-2-carboxamide, 4,6,7,9-tetrahydro-3-hydroxy-9,9-dimethyl-4-oxo-N-[[5-(phenylmethyl)-2-furanyl]methyl]], the IC50 was in the range of 2 to 100 nM.
With “Pyrimido[2,1-c][1,4]oxazine-2- carboxamide, N-[(4-bromo-1- ethyl-1H-pyrazol-5-yl)methyl]- 4,6,7,9-tetrahydro-3-hydroxy-9,9- dimethyl-4-oxo- [Example 73]”, the IC50 is no less than 1000 nM.
Take “Pyrimido[2,1-c][1,4]oxazine-2- carboxamide, N-[(5-chloro-1H- indol-2-yl)methyl]-4,6,7,9- tetrahydro-3-hydroxy-9,9- dimethyl-4-oxo- [Example 62]”: the IC50 was in the range of 100 to 1000 nM.
